Article PMC9230575, “^68Ga-Labeled [Leu^13ψThz^14]Bombesin(7–14) Derivatives: Promising GRPR-Targeting PET Tracers with Low Pancreas Uptake” (Molecules, 2022)
*1 amine or outer side, *2 acyl side, *3 side chain or, on linkers, in order; H or OH if unused. Where a SMILES comes first, the peptide text is derived from it. [ ]: non-standard residue; d: D form. The star is where a group is joined. DOTA = O=C(O)CN1CCN(CC(=O)O)CCN(CC(=O)*)CCN(CC(=O)O)CC1; Leuψ(CH2N)ThzNH2 = CC(C)C[C@@H](CN1CSC[C@H]1C(N)=O)N*; d2Nal = N[C@H](Cc1ccc2ccccc2c1)C(=O)O; Cya = N[C@@H](CS(=O)(=O)O)C(=O)O; X1 = O=C(CN1CCC(N[*:1])CC1)[*:2]

Legend:
GRPR = target: T1, GRPR (Homo sapiens, UniProt P30550); test: Fluorometric intracellular calcium release assay using PC-3 cells; assay type: cell-based; settings: 50 nM ligand
T1 construct: endogenous in cells; host or cells: PC-3 prostate cancer cells
Procedure: Following previously published procedures, 5 × 10^4 PC-3 cells were seeded in 96-well clear-bottom black plates 24 h prior to the assay. The growth medium was removed and replaced with a loading buffer containing a calcium-sensitive dye (FLIPR Calcium 6 assay kit, Molecular Device, San Jose, CA, USA). After incubation at 37 °C for 30 min, the plates were placed in a FlexStation 3 microplate reader (Molecular Devices). […] Agonistic/antagonistic properties were determined using the relative fluorescent unit (RFU = max–min).

physchem = settings: 1-octanol/phosphate buffer, pH 7.4
Procedure: Briefly, aliquots (2 μL) of the ^68Ga-labeled peptides were added to a vial containing 3 mL of 1-octanol and 3 mL of 0.1 M phosphate buffer (pH 7.4). The mixture was vortexed for 1 min and then centrifuged at 5000 rpm for 10 min. Samples of the 1-octanol (1 mL) and buffer (1 mL) layers were taken and counted in a gamma counter. LogD7.4 was calculated using the following equation: LogD7.4 = log10[(counts in 1-octanol phase)/(counts in buffer phase)].

PC-3 tumor xenografts [1] = test: PET/CT imaging of mice bearing PC-3 tumor xenografts; assay type: in vivo; settings: 1 h post-injection
Procedure: The PET/CT imaging experiments were carried out using a Siemens (Knoxville, TN, USA) Inveon micro-PET/CT scanner. […] At 50 min post-injection, a 10 min CT scan was conducted: first for localization and attenuation corrections after segmentation for reconstructing the PET images, followed by a 10 min static PET imaging acquisition.

[2] = for Fraction remaining intact in plasma: NRG mice, 15 min post-injection, n = 3; for Intact tracer in urine: mouse urine samples collected at 15 min post-injection
Procedure: Imaging, biodistribution, and in vivo stability studies were performed using male NOD.Cg-Rag1^tm1Mom Il2rg^tm1Wjl/SzJ (NRG) mice (from in-house breeding colonies) following previously published procedures. […] When the tumor grew to 5–8 mm in diameter over 3–4 weeks, the mice were used for PET/CT imaging and biodistribution studies.
At 15 min post-injection, the mice were sedated and euthanized, and urine and blood were collected. The plasma was extracted from whole blood by the addition of CH3CN (500 μL), vortexing, centrifugation, and the separation of the supernatants. The plasma and urine samples were analyzed via radio-HPLC by using the conditions for quality control of these ^68Ga-labeled radioligands (Table S3).

PC-3 tumor xenografts [3] = test: Ex vivo biodistribution in PC-3 tumor-bearing mice; settings: 1 h post-injection, n = 4
Procedure: For biodistribution studies, the mice (n = 4) were injected with the radiotracer (~2–4 MBq, 0.03–0.07 nmol) as described above. […] At 1 h post-injection, the mice were euthanized by CO2 inhalation. Blood was withdrawn by cardiac puncture, and organs/tissues of interest were collected, weighed and counted using a Perkin Elmer (Waltham, MA, USA) Wizard2 2480 automatic gamma counter.

T1 sequence (P30550 whole entry): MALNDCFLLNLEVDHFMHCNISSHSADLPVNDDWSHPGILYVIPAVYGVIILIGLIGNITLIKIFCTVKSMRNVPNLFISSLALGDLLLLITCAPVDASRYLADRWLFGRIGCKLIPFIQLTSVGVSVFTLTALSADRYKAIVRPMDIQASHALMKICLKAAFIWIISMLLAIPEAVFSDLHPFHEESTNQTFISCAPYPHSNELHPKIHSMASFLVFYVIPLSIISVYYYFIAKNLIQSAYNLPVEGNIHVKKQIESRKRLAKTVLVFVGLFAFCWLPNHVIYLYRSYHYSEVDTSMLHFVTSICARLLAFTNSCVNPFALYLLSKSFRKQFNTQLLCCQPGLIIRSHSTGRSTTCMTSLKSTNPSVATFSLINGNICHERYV

Row | Compound | Ca2+ efflux (relative fluorescence units, max-min) (GRPR) | logD (physchem) | Excretion pathway in PET images (PC-3 tumor xenografts [1]) | also measured
1 | Nc1ncnc2c1ncn2[C@@H]1O[C@H](COP(=O)(O)OP(=O)(O)OP(=O)(O)O)[C@@H](O)[C@H]1O [ATP, adenosine triphosphate] | 334 ± 39.0 RFU |  |  | 
2 | CC(C)C[C@@H](CN1CSC[C@H]1C(N)=O)NC(=O)[C@H](Cc1c[nH]cn1)NC(=O)CNC(=O)[C@@H](NC(=O)[C@H](C)NC(=O)[C@H](Cc1c[nH]c2ccccc12)NC(=O)[C@H](CCC(N)=O)NC(=O)[C@H]1Cc2c([nH]c3ccccc23)CN1C(=O)CN1CCC(NC(=O)CN2CCN(CC(=O)O)CCN(CC(=O)O)CCN(CC(=O)O)CC2)CC1)C(C)C [Ga-TacsBOMB4] | 9.30 ± 3.74 RFU |  |  | 
3 | CC(C)C[C@@H](CN1CSC[C@H]1C(N)=O)NC(=O)[C@H](Cc1c[nH]cn1)NC(=O)CNC(=O)[C@@H](NC(=O)[C@H](C)NC(=O)[C@H](Cc1c[nH]c2ccccc12)NC(=O)[C@H](CCC(N)=O)NC(=O)[C@@H](Cc1ccc2ccccc2c1)NC(=O)CN1CCC(NC(=O)[C@H](CS(=O)(=O)O)NC(=O)CN2CCN(CC(=O)O)CCN(CC(=O)O)CCN(CC(=O)O)CC2)CC1)C(C)C [Ga-TacsBOMB6] ({DOTA}-[Cya][X1][d2Nal]QWAVGH-{Leuψ(CH2N)ThzNH2}) | 23.0 ± 0.06 RFU |  |  | 
4 | CC(C)C[C@H](NC(=O)C[C@H](O)[C@H](CC(C)C)NC(=O)[C@H](Cc1c[nH]cn1)NC(=O)CNC(=O)[C@@H](NC(=O)[C@H](C)NC(=O)[C@H](Cc1c[nH]c2ccccc12)NC(=O)[C@H](CCC(N)=O)NC(=O)[C@@H](Cc1ccccc1)NC(=O)CN1CCC(NC(=O)CN2CCN(CC(=O)O)CCN(CC(=O)O)CCN(CC(=O)O)CC2)CC1)C(C)C)C(N)=O [[^68Ga]Ga-RM2, metal not drawn, reference compound] |  | -2.76 ± 0.03 | primarily excreted through the renal pathway | Fraction remaining intact in plasma [2]: 71.9 ± 10.4%; Intact tracer in urine [2]: no intact; Spleen uptake (PC-3 tumor xenografts [3]): 0.44 ± 0.26 %ID/g
5 | CC(C)C[C@@H](CN1CSC[C@H]1C(N)=O)NC(=O)[C@H](Cc1c[nH]cn1)NC(=O)CNC(=O)[C@@H](NC(=O)[C@H](C)NC(=O)[C@H](Cc1c[nH]c2ccccc12)NC(=O)[C@H](CCC(N)=O)NC(=O)[C@@H](Cc1ccccc1)NC(=O)CN1CCC(NC(=O)CN2CCN(CC(=O)O)CCN(CC(=O)O)CCN(CC(=O)O)CC2)CC1)C(C)C [[^68Ga]Ga-TacsBOMB2, metal not drawn] |  | -2.39 ± 0.13 | primarily excreted through the renal pathway | Fraction remaining intact in plasma [2]: 83.3 ± 1.45%; Intact tracer in urine [2]: no intact
6 | CC(C)C[C@@H](CN1CSC[C@H]1C(N)=O)NC(=O)[C@H](Cc1c[nH]cn1)NC(=O)CNC(=O)[C@@H](NC(=O)[C@H](C)NC(=O)[C@H](Cc1c[nH]c2ccccc12)NC(=O)[C@H](CCC(N)=O)NC(=O)[C@@H](Cc1ccc2ccccc2c1)NC(=O)CN1CCC(NC(=O)CN2CCN(CC(=O)O)CCN(CC(=O)O)CCN(CC(=O)O)CC2)CC1)C(C)C [[^68Ga]Ga-TacsBOMB3, metal not drawn] |  | -1.75 ± 0.04 | primarily excreted through the renal pathway | 
7 | CC(C)C[C@@H](CN1CSC[C@H]1C(N)=O)NC(=O)[C@H](Cc1c[nH]cn1)NC(=O)CNC(=O)[C@@H](NC(=O)[C@H](C)NC(=O)[C@H](Cc1c[nH]c2ccccc12)NC(=O)[C@H](CCC(N)=O)NC(=O)[C@@H](Cc1ccc2ccccc2c1)NC(=O)CN1CCC(NC(=O)[C@H](CS(=O)(=O)O)NC(=O)CN2CCN(CC(=O)O)CCN(CC(=O)O)CCN(CC(=O)O)CC2)CC1)C(C)C [[^68Ga]Ga-TacsBOMB6, metal not drawn] ({DOTA}-[Cya][X1][d2Nal]QWAVGH-{Leuψ(CH2N)ThzNH2}) |  | -2.55 ± 0.16 | primarily excreted through the renal pathway | 
8 | [D-Phe^6,Leu-NHEt^13,des-Met^14]Bombesin(6–14) | 25.3 ± 1.92 RFU |  |  | 
9 | bombesin | 754 ± 38.3 RFU |  |  | 
